Test system: S. enteric (ATCC 43972)
Experiment: Antibacterial agar diffusion method (inhibition zone)
Format: cell-based
Method in brief: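 IC50 values come from residual colony counts versus initial inoculum: cells at 2 ×10^7 CFU/mL in sterile BHI incubated with compound under shaking, 60 min, 37 °C, then plated for 24 h. Zone assays used agar diffusion with ampicillin (10 µg/well) control.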

In the case of `COc1cc(C2C(C#N)=C(N)OC(C)=C2C(=O)OCc2ccccc2)cc(OC)c1OC` (stereo not shown) [4d, 6-Amino-5-cyano-2-methyl-4-(3,4,5-trimethoxy-phenyl)-4H-pyran-3-carboxylic acid benzyl ester], the “IZ (mm)” value is reported as 7.0 ± 0.0 mm.

From publication PMC9317316, “Synthesis and Evaluation of Some New 4H-Pyran Derivatives as Antioxidant, Antibacterial and Anti-HCT-116 Cells of CRC, with Molecular Docking, Antiproliferative, Apoptotic and ADME Investigations” (Pharmaceuticals, 2022)
